Source: patent US20250041382A1, “ANTIVIRAL COMPOSITION COMPRISING OCTOMININ” (priority 2023, published 2025)
Values joined by “and” are separate entries in the source; they are usually repeats but may differ in a detail not shown here. Equal values may be shown once. Peptide text beside a SMILES is read from it.

Experiments:
in vitro [1] = type: cell-based
IHNV (RtPy91 strain) = assay: microbe, parasite or virus in culture
Protocol: (§1) Specifically, three major fish pathogenic viruses VHSV (F1Wa05 strain), IHNV (RtPy91 strain), and IPNV (VR299 strain) were used to study the antiviral activity of Octominin. Octominin at various concentrations reacted with an equal amount of virus (infectious titer: 200 TCID50/mL) at 15° C. for 1 hour. Thereafter, the reactant was overlaid onto quadruplicate FHM cells in a 96-well plate (1×10^5 cells/mL) and incubated for 96 hours.
(§2) CPE was scored by optical microscopy using a DIAPHOT 300 inverted microscope (Nikon Cooperation, Tokyo, Japan) (score 0, 0% CPE; score 1, 10 to 20% CPE; score 2, 30 to 40% CPE; score 3, 50 to 60% CPE; score 4, 70 to 80% CPE; and score 5, 90 to 100%). The results were expressed as a 50% effective concentration (EC50) and calculated using Microsoft Excel software. Ribavirin, a known broad-spectrum antiviral agent, was used as a positive control group. The antiviral activity of Octominin was evaluated by calculation using Equation SI (selective index)=CC50/EC50.

IPNV (VR299 strain) = assay: microbe, parasite or virus in culture
Protocol: as §1, §2

VHSV (F1Wa05 strain) = assay: Cytopathic effect (CPE) reduction assay, VHSV in FHM cells
Protocol: as §1, §2

in vitro [2] = type: cell-based; conditions: fathead minnow
[3] = fathead minnow (Pimephales promelas), 96 h

## CC[C@H](C)[C@H](NC(=O)[C@H](C)NC(=O)[C@H](CCCCN)NC(=O)CNC(=O)[C@H](C)NC(=O)[C@H](Cc1c[nH]cn1)NC(=O)[C@@H](NC(=O)[C@H](C)NC(=O)CNC(=O)[C@H](CCCNC(=N)N)NC(=O)[C@@H](NC(=O)[C@H](CC(C)C)NC(=O)[C@H](Cc1c[nH]c2ccccc12)NC(=O)CN)[C@@H](C)CC)[C@@H](C)CC)C(=O)N[C@@H](Cc1c[nH]cn1)C(=O)NCC(=O)N[C@@H](CC(C)C)C(=O)N[C@H](C(=O)N[C@@H](Cc1c[nH]cn1)C(=O)N[C@@H](CCCNC(=N)N)C(=O)N[C@@H](CCCNC(=N)N)C(=O)N[C@@H](CCCNC(=N)N)C(=O)N[C@@H](Cc1c[nH]cn1)C(=O)O)[C@@H](C)CC [Octominin] (H-GWLIRGAIHAGKAIHGLIHRRRH-OH)
In vitro [1]; Chinook salmon (Oncorhynchus tshawytscha)
  CC50: 1870 µg/mL and 990 µM
IHNV (RtPy91 strain); [3]
  SI (selective index)=CC50/EC50: 4.9
IPNV (VR299 strain); Chinook salmon (Oncorhynchus tshawytscha), 96 h
  SI (selective index)=CC50/EC50: 2.0
VHSV (F1Wa05 strain); [3]
  SI (selective index)=CC50/EC50: 2.9

## NC(=O)c1ncn([C@@H]2O[C@H](CO)[C@@H](O)[C@H]2O)n1 [Ribavirin]
In vitro [2]
  CC50: 962 µM
In vitro [1]; Chinook salmon
  CC50: 121 µM
IHNV (RtPy91 strain); Infectious hematopoietic necrosis virus, 96 h
  EC50: 550 nM
IHNV (RtPy91 strain); fathead minnow
  selectivity ratio at 96 h: 1750
IPNV (VR299 strain); Chinook salmon
  selectivity ratio at 96 h: 162
IPNV (VR299 strain); Infectious pancreatic necrosis virus, CHSE-214
  EC50: 750 nM
VHSV (F1Wa05 strain); Viral hemorrhagic septicemia virus, 96 h
  EC50: 270 nM
VHSV (F1Wa05 strain); fathead minnow, FHM cells infected with VHSV (F1Wa05 strain)
  selectivity ratio at 96 h: 3560
